Reference: patent publication US9290528B1, “Light-activated compounds” (University of Kentucky Research Foundation, priority 2013, dated 2016)
Several values for one entry are separate records, joined by “and”; a condition that tells them apart may be missing. Identical values can stand only once. Like-named read-outs stand apart in the source and are kept apart here. One block for each compound: values may come before it.

Experiments:
A549 tumor spheroids = assay: A549 tumor spheroid cytotoxicity; type: cell-based; details: for MCR Index: ratio of spheroid and monolayer culture IC50
Protocol: A549 cells were seeded at 2,500 cells/well in 1.5% agarose coated 96-well plates. After 7 days the spheroids were dosed with compounds and incubated for 12 hrs. […] Cellular viability was determined 72 hours after light activation for the irradiated samples and at the same time point for the dark samples by measuring ATP concentration with CellTiter Glo (Promega). Data were fit to an equation for sigmoidal dose response shown above using the Prism software package.
3D tumor spheroids were used to test the compounds. Spheroids provide a system that approximates the complexity of in vivo tumors. These spheroids mimic the pathophysiology of tumors, including hypoxic/necrotic regions, changes in cell shape, high proportions of quiescent cells, alterations in gene expression profiles, and diminished permeability to drugs. […] To characterize the light-activated ruthenium compounds under more challenging and biologically relevant conditions, efficacy was assessed in a 3D tumor model by forming tumor spheroids with A549 cells.
Spheroids of about 600 μm in diameter were dosed with compounds and then either kept in the dark or irradiated with >450 nm light for 3 minutes.

[1] = test system: HL60 promyelocytic leukemia cell line; assay: Cell survival assay, HL60; type: cell-based; details: for Phototoxicity Index, PI HL60: ratio of dark and light IC50
Protocol: (§1) The HL60 promyelocytic leukemia cell line was obtained from ATCC and cultured in IMDM media (Invitrogen; Carlsbad, Calif.) supplemented with 10% serum supreme (Lonza; Basel, Switzerland) and penicillin/streptomycin at 37° C. with 5% CO2. The A549 cell line was donated and cultured in DMEM supplemented with glutamax, 10% serum supreme, and penicillin/streptomycin at 37° C. with 5% CO2. Cells were plated in Optimem (Life Technologies; Carlsbad, Calif.) supplemented with 1% serum supreme and penicillin/streptomycin at 30,000 cells per well in Costar 96 well flat bottom clear tissue culture treated plates for HL60 and 1500 cells/well for A549. […] The cells were then incubated for 72 hours followed by the addition of Cell Titer Glo (Promega; Madison, Wis.) to determine viability. Dark controls were run in parallel. The resulting luminescence was measured using the SpectraFluor Plus Plate Reader (Tecan). Data were fit to an equation for a sigmoidal dose response using the equation below, where yi and yf are the initial and final signal intensities.
(§2) Cell cytotoxicity studies were performed in HL60 leukemia cells and A549 lung cancer cells (see FIG. 7 and Table 3). Cells were incubated with compounds for 12 hours in the dark before irradiated with >450 nm light (410 W) for 3 minutes. Dark controls were run in parallel. Cell survival was quantified 72 hours later through the use of an ATP luciferase assay, and confirmed by Trypan Blue staining and manual counting.

A549 lung cancer cells = assay: Cell survival assay, A549 monolayer; type: cell-based; details: for Phototoxicity Index, PI A549: ratio of dark and light IC50
Protocol: as §1, §2

HL60 cells [2] = assay: Genomic DNA laddering by gel electrophoresis; type: cell-based, human; details: dark / not irradiated
Source text: To further analyze the mechanisms of cell death induced by 9 and 10, the degradation pattern of genomic DNA was investigated. DNA laddering was observed as a result of DNA fragmentation stemming from the execution phase of apoptosis. In contrast, necrotic cell death lacked this characteristic laddering effect, allowing differentiation between these two mechanisms. […] This laddering was absent in the cells treated with ethanol and compounds 9 and 10 in the dark. […] In contrast, given the cytotoxicity of 9 in the dark and the presence of the 55 kDa PARP fragment, it appears that necrotic cell death is one pathway for […]. For compound 10 the absence of DNA laddering may be a result of the lack of cytotoxicity of the negatively charged compound.

[3] = test system: HL-60 human leukemia cell line; assay: Cytotoxicity in HL-60 cells, dark and irradiated (Example 1); type: cell-based
Protocol: Cytotoxicity studies were performed to determine if the light-induced DNA damage translated to biological activity in cancer cells. […] The compounds were incubated with the cells for 12 hours prior to irradiation with blue (>400 nm), red (>600 nm), and near-IR (>650 nm) light (Table 2). […] Increasing the light dose increased the observed potency. […] A phototoxicity index (PI) value (the toxicity in the dark vs. the light) of 43 was found with blue light for compound 1.

HL60 cells [4] = assay: Western blot of PARP and caspase 3 cleavage; type: cell-based, human; details: protected from light and irradiated
Protocol: Given the different cellular localization properties and time profiles for cell death induced by 9 and 10, the mechanism of cell death was investigated. Indicators of apoptotic cell death (activation of PARP and caspase 3 through proteolysis) were determined in HL60 cells treated with either 9 or 10 (FIGS. 15A and 15B).
The generation of an alternate 55 kDa PARP fragment was determined by immunoblot as a marker for necrosis with 10% (v/v) ethanol used as a control that induces necrosis.

[5] = Light and dark cytotoxicity of exemplary compounds (Table 6); type: cell-based; details: for IC50: cell line not stated; for Phototoxicity Index: dark IC50/light IC50
Source text: This Example describes additional specific embodiments the presently-disclosed subject matter. […] The methods for making and characterizing the compounds are based on the methodologies described in the previous examples.

[6] = test system: HL60 leukemia cells and A549 lung cancer cells; assay: Cell cytotoxicity studies, summary over HL60 and A549; type: cell-based; details: for activity light versus dark: >450 nm light 3 minutes vs dark
Protocol: as §1, §2

pUC19 plasmid [7] = assay: Glutathione assay: pUC19 crosslinking with increasing GSH; type: biochemical; details: 30 μM compound, 0.01-40 mM GSH; 4 light-activated
Protocol: The concentrations of GSH were 0.01, 0.1, 1, 10, 40 mM, giving a molar ratio between the compounds and glutathione of a) 1:0.3, b) 1:3.3, c) 1:33, d) 1:333, e) 1:1333. […] Control reactions with pUC19 in the presence and absence of GSH were carried out for 12 hrs in the dark with 25 μg/ml plasmid and 40 mM GSH in 10 mM phosphate buffer, pH 7.5. The plasmid was resolved on a 1% agarose gel as described above.
(§3) The photoactivated DNA crosslinking Ru(bpy)2 species retained its ability to damage DNA, even at higher GSH concentrations.

pUC19 plasmid [8] = assay: Plasmid-compound gel analysis (Example 2); details: visible light 200 W, 1 hour
[9] = Interaction of prodrug compounds with GSH by UV/Vis spectroscopy; type: physicochemical; details: period of days
Source text: as §3

CT DNA = assay: DNA binding affinity (Kb) with CT DNA; parameters: species or system calf; details: racemic mixtures
Source text: Intercalation of both complexes was consistent with the reduced mobility of supercoiled plasmid DNA in agarose gels, and the modulation of the absorption spectra in the presence of DNA, characterized by hypochromism of both the π-π* of the dppz ligand and the MLCT transitions, with maximal effect at a ratio of 2:1 DNA base pairs to metal center. Thus, the strained complex retained DNA-sensing capabilities of other Ru^II “light-switch” molecules and photochemical reactivity.

[10] = dark, read-out: Dark IC50 A549 spheroid
[11] = 3 min >450 nm light, 72 hours, read-out: Light IC50 HL60
[12] = 3 min >450 nm light, 72 hours, read-out: Light IC50 A549
[13] = 3 min >450 nm light, 72 hours, read-out: Light IC50 A549 spheroid

Compound: Cl.NCC(=O)CCC(=O)O [ALA, 5-aminolevulinic acid hydrochloride, reference compound]
- Light IC50 A549 spheroid (A549 tumor spheroids; 3 min >450 nm light, 72 hours): had no effect
- IC50 (A549 tumor spheroids; Homo sapiens, A549, 3 min >450 nm light, 72 hours, read-out: Light IC50 A549 spheroid): > 300 µM
- IC50 (A549 tumor spheroids; Homo sapiens, A549, read-out: Dark IC50 A549 spheroid): > 300 µM
- MCR Index (A549 tumor spheroids): >14
- IC50 ([1]; Homo sapiens, HL-60, 3 min >450 nm light, 72 hours, read-out: Light IC50 HL60): 16.2 µM
- IC50 ([1]; Homo sapiens, HL-60, read-out: Dark IC50 HL60): > 300 µM
- Phototoxicity Index, PI HL60 [1]: >18
- IC50 (A549 lung cancer cells; Homo sapiens, A549, 3 min >450 nm light, 72 hours, read-out: Light IC50 A549): 21 µM
- IC50 (A549 lung cancer cells; Homo sapiens, A549, read-out: Dark IC50 A549): 87.8 µM
- Phototoxicity Index, PI A549 (A549 lung cancer cells): 4.2

Compound: N.N.[Cl][Pt][Cl] [Cisplatin, reference compound]
- genomic DNA laddering (HL60 cells [2]): initiated DNA fragmentation resulting in a laddering pattern
- IC50 ([3]; HL-60, dark, read-out: IC50 Dark): 3.1 µM
- IC50 ([3]; HL-60, light condition not given, read-out: IC50): 3.1 µM
- IC50 ([3]; read-out: IC50 Blue (3 min), HL-60, 12 hours incubation, blue (>400 nm) light 3 min): 3.1 µM
- IC50 (A549 tumor spheroids; [10]): 42 µM
- 55 kDa PARP fragment (marker for necrosis) (HL60 cells [4]): also produced this cleavage product
- IC50 ([5]; read-out: Dark IC50): 3.1 µM
- IC50 ([5]; read-out: Light IC50): 3.1 µM
- IC50 [1, 11]: 3.1 µM
- IC50 ([1]; dark, read-out: Dark IC50 HL60): 3.1 µM
- activity light versus dark [6]: same activity under light and dark conditions
- IC50 (A549 lung cancer cells; [12]): 3.4 µM
- IC50 (A549 lung cancer cells; dark, read-out: Dark IC50 A549): 3.5 µM
- plasmid DNA crosslinking in presence of increasing GSH (pUC19 plasmid [7]): reduced crosslinking efficacy

Compound: [Ru+2].c1ccc(-c2ccccn2)nc1.c1ccc(-c2ccccn2)nc1.c1cnc2c(c1)ccc1cccnc12 [Compound 3, Ru(bpy)2phen]
- IC50 (A549 tumor spheroids; [13]): > 300 µM
- IC50 (A549 tumor spheroids; [10]): > 300 µM
- MCR Index (A549 tumor spheroids): >7.5
- type of DNA damage upon visible light (pUC19 plasmid [8]): DNA photocleavage
- IC50 [1, 11]: 81 µM
- IC50 ([1]; dark, read-out: Dark IC50 HL60): 240 µM
- Phototoxicity Index, PI HL60 [1]: 3
- IC50 (A549 lung cancer cells; [12]): 40 µM
- IC50 (A549 lung cancer cells; dark, read-out: Dark IC50 A549): 250 µM
- Phototoxicity Index, PI A549 (A549 lung cancer cells): 6.3

Compound: Cc1ccc2c3nccnc3c3ccc(C)nc3c2n1.F[P-](F)(F)(F)(F)F.F[P-](F)(F)(F)(F)F.[Ru+2].c1ccc(-c2ccccn2)nc1.c1ccc(-c2ccccn2)nc1 [Compound 5, Ru(bpy)2dmdpq]
- IC50 (A549 tumor spheroids; [13]): 64 µM and 64.6 µM
- IC50 (A549 tumor spheroids; [10]): > 300 µM
- MCR Index (A549 tumor spheroids): 54
- IC50 ([5]; read-out: Dark IC50): 250 µM
- IC50 ([5]; read-out: Light IC50): 0.6 µM
- Phototoxicity Index [5]: 400
- type of DNA damage upon visible light (pUC19 plasmid [8]): combination of these two mechanisms
- IC50 [1, 11]: 2.6 µM
- IC50 ([1]; dark, read-out: Dark IC50 HL60): 108 µM
- Phototoxicity Index, PI HL60 [1]: 216
- activity light versus dark [6]: light-triggered toxicity
- IC50 values after irradiation ([6]; after irradiation): single μM IC50 values
- IC50 ([6]; dark): > 100 µM
- IC50 (A549 lung cancer cells; [12]): 1.2 µM
- IC50 (A549 lung cancer cells; dark, read-out: Dark IC50 A549): 250 µM
- Phototoxicity Index, PI A549 (A549 lung cancer cells): 208
- interaction with GSH [9]: did not interact with GSH

Compound: Cc1cc(-c2ccccc2)c2ccc3c(-c4ccccc4)cc(C)nc3c2n1.[Ru+2].c1ccc(-c2ccccn2)nc1.c1ccc(-c2ccccn2)nc1 [Ru(bpy)2bathocuprione]
- IC50 ([5]; read-out: Dark IC50): 27 µM
- IC50 ([5]; read-out: Light IC50): 3.3 µM
- Phototoxicity Index [5]: 8.18

Compound: Cc1ccc2ccc3ccc(C)nc3c2n1.[Ru+2].c1ccc(-c2ccccn2)nc1.c1ccc(-c2ccccn2)nc1 [Ru(bpy)2dmphen]
- IC50 ([5]; read-out: Dark IC50): 8 µM
- IC50 ([5]; read-out: Light IC50): 0.4 µM
- Phototoxicity Index [5]: 20

Compound: Cc1ccc2ccc3ccc(C)nc3c2n1.Cc1ccc2ccc3ccc(C)nc3c2n1.[Ru+2].c1ccc(-c2ccnc3c2ccc2c(-c4ccccc4)ccnc23)cc1 [Ru(dmphen)2bathophen]
- IC50 ([5]; read-out: Dark IC50): 4.5 µM
- IC50 ([5]; read-out: Light IC50): 1.7 µM
- Phototoxicity Index [5]: 2.5

Compound: Cc1ccc2ccc3ccc(C)nc3c2n1.Cc1ccc2ccc3ccc(C)nc3c2n1.[Ru+2].c1ccc(-c2ccccn2)nc1 [Ru(dmphen)2bpy]
- IC50 ([5]; read-out: Dark IC50): 150 µM
- IC50 ([5]; read-out: Light IC50): 1.2 µM
- Phototoxicity Index [5]: 125

Compound: Cc1ccc2ccc3ccc(C)nc3c2n1.Cc1ccc2ccc3ccc(C)nc3c2n1.[Ru+2].c1ccc2nc3c4cccnc4c4ncccc4c3nc2c1 [Ru(dmphen)2dppz]
- IC50 ([5]; read-out: Dark IC50): 150 µM
- IC50 ([5]; read-out: Light IC50): 0.5 µM
- Phototoxicity Index [5]: 300

Compound: Cc1ccc2ccc3ccc(C)nc3c2n1.Cc1ccc2ccc3ccc(C)nc3c2n1.[Ru+2].c1cnc2c(c1)c1nccnc1c1cccnc12 [Ru(dmphen)2dpq]
- IC50 ([5]; read-out: Dark IC50): 250 µM
- IC50 ([5]; read-out: Light IC50): 0.22 µM
- Phototoxicity Index [5]: 1,130

Compound: Cc1ccc2ccc3ccc(C)nc3c2n1.Cc1ccc2ccc3ccc(C)nc3c2n1.[Ru+2].c1cnc2c(c1)ccc1cccnc12 [Ru(dmphen)2phen]
- IC50 ([5]; read-out: Dark IC50): 35 µM
- IC50 ([5]; read-out: Light IC50): 0.14 µM
- Phototoxicity Index [5]: 250

Compound: COc1cccc2c1C(=O)c1c(O)c3c(c(O)c1C2=O)C[C@@](O)(C(=O)CO)C[C@@H]3O[C@H]1C[C@H](N)[C@H](O)[C@H](C)O1 [doxorubicin, reference compound]
- 55 kDa PARP fragment (marker for necrosis) (HL60 cells [4]): also produced this cleavage product

- Kb (CT DNA): 1e+07 M⁻¹
Compound: Ru(bpy)2dppz [Compound 7, reference compound]
